Here are results for two molecules from US20110172304A1, “Sex Attractant of White Peach Scale and Attraction Method” (Shin-Etsu Chemical Co., Ltd., priority 2010, published 2011).

The structures appear in SMILES notation.

Assay [1] has as its system Thomsonisca amathus. Briefly: Field sticky-trap attraction test in a tea field, natural-enemy parasitoid wasp. As to conditions: number attracted to trap relative to Comparative Example 1 (100% Z isomer) = 100, rubber cap with 0.1 mg in total of Z and E isomers, white sticky trap, June 2007. The assay is classed as in vivo. How it is done:
(§1) In accordance with the process described in J. Org. Chem. 1980, 45, 2910-2913, (R,Z)-(+)-3,9-dimethyl-6-isopropenyl-3,9-decadienyl propionate, the sex pheromone of white peach scale, was synthesized. The product thus obtained was separated into the Z isomer and the E isomer by using medium-pressure liquid column chromatography. A gray rubber cap (produced by West in US) impregnated with 0.1 mg in total of the Z isomer and the E isomer at a weight ratio of 100:0, 90:10, 80:20, 70:30, 60:40, 50:50, 40:60, 20:80 or 0:100 was used as an attractant for test.
(§2) In the emerging season of first-generation adult males of white peach scale in June, 2007, the attractant described above was attached to a white sticky trap and placed at intervals of 10 m on ridges in a tea field. The numbers of adult males of white peach scale and Thomsonisca amathus, a parasitoid wasp and natural enemy thereof, which had stuck to the sticky plates, was counted every day, respectively.
(§3) When the number of adult males of white peach scale attracted to the trap in Comparative Example 1 comprising an attractant containing 100% of (R,Z)-(+)-3,9-dimethyl-6-isopropenyl-3,9-decadienyl propionate was assigned as 100, the number attracted to each trap was calculated as a relative value. In the attraction test of Thomsonisca amathus, similar data processing was performed.

Assay [2] deals with adult males of white peach scale. As to the kind of experiment: Field sticky-trap attraction test in a tea field, adult males of white peach scale. The assay is classed as in vivo, Pseudaulacaspis pnetagona. The note with it: number attracted to trap relative to Comparative Example 1 (100% Z isomer) = 100, rubber cap with 0.1 mg in total of Z and E isomers, June 2007. As to the method: as §1, §2, §3

In the case of `C=C(C)CC[C@H](C/C=C(/C)CCOC(=O)CC)C(=C)C` [Comp.Ex. 1, (R,Z)-(+)-3,9-dimethyl-6-isopropenyl-3,9-decadienyl propionate], the “attraction of Thomsonisca amathus” value in assay [1] stood at 100.0%. Also, the “attraction of adult males of white peach scale” value in assay [2] was 100.0%.

With `C=C(C)CC[C@H](C/C=C(\C)CCOC(=O)CC)C(=C)C` [Comp.Ex. 4, (R,E)-(+)-3,9-dimethyl-6-isopropenyl-3,9-decadienyl propionate], the “attraction of Thomsonisca amathus” value in assay [1] came to 0.0%. For the same molecule, in assay [2], the “attraction of adult males of white peach scale” value is 0.0%.
